Measurements: patent US20250101026A1, “Functionalized Allopurinol Derivatives for Treatment of Alzheimer’s Disease” (BOARD OF REGENTS OF THE UNIVERSITY OF NEBRASKA, priority 2022, published 2025)
Entries after “also recorded” stand apart in the source; their conditions may differ.

Tests used:
[1] = system: SH-SY5Y cells; assay: Aβ-induced toxicity in SH-SY5Y cells, MTS assay; format: cell-based, human; settings: 1 μM
Description: (§1) Cell Culture. The cell line SH-SY5Y was cultured in DMEM/F12 media supplemented with 10% fetal bovine serum, 1% penicillin-streptomycin and maintained as monolayer cultures in a humidified atmosphere containing 5% CO2 at 37° C.^42 All cell lines were authenticated via short tandem repeat analysis and tested for mycoplasma using the a commercial mycoplasma detection kit as per the manufacturer's instructions, showing no contamination. Where indicated, cells were also cultured in DMEM/low glucose media. All compounds were diluted to 20 mM solution in DMSO and were serially diluted in cell culture media for cell treatments to a final concentration range of 0.01 to 100 μM, maintaining the final DMSO concentration at less than 1%. Positive control compound HupA was serially diluted in a similar fashion as the synthesized compounds.
(§2) Amyloid Preparation. The peptide Aβ1-42, referred to as “Aβ”, was obtained from a commercial source. The oligomers of Aβ were prepared using an established method,^43 Aβ peptide was resuspended in 0.5 mM NaOH at a concentration of […] and stored at −80° C. For use in cell cultures, the stock solution was incubated at 37° C. for 5-7 days. Before use, the peptide was diluted to 25 μM in DMEM/low glucose media.
Cell Viability Assays. The SH-SY5Y cells were plated at a density of 50,000 cells/well in 96-well plates and allowed to adapt overnight in a humidified atmosphere containing 5% CO2 at 37° C. The cells were pretreated (24 hours) with the test compound and exchanged to a serum-free DMEM/low glucose media, prior to incubation with 25 μM of Aβ. Cell viability was measured after 48 hours using commercial MTS assay or lactate dehydrogenase (LDH) cytotoxicity assay.
Employing human neuroblastoma SH-SY5Y ‘neuron-like’ cells, known to express ABAD,^20 experimental conditions are described herein that result in reproducible loss of 65% cell viability upon treatment with 25 μM Aβ after 48-hour incubation (FIG. 4A). Compound 1 (AG18051) and its analog 14b were screened for toxic effects in the SH-SY5Y cell lines.
HupA at 10 μM concentration provided 74% protection from Aβ-induced toxicity. […] Again, synthesized compound 14b at 1 μM, afforded greater protection than HupA at 10 μM concentration.

[2] = system: SH-SY5Y cells; assay: Mitochondrial Stress Test in Aβ-treated SH-SY5Y cells (extracellular flux analyzer); format: cell-based, human
Description: Mitochondrial Stress Test. […] After 48 hours, media was replaced with assay medium consisting of XF Base Medium supplemented with 10 mM glucose, 10 mM pyruvic acid, and 1 mM L-glutamine. Subsequently, the analysis of mitochondrial oxygen consumption rate (OCR) was performed in a flux analyzer. The OCR values were obtained both during baseline (prior to addition of any Mito Stress Test substances), and after the addition of […], 2 μM FCCP and 0.5 μM rotenone+0.5 μM antimycin A, respectively. Prior to analysis, data were corrected by withdrawing non-mitochondrial respiration (measured after the injection of rotenone and antimycin A) from all measured OCR values. After the experiment, cells were lysed using RIPA buffer and protease inhibitor cocktail, then proteins were quantified via BCA assay. Results were normalized to protein concentration of each well to its OCR value.

[3] = system: SH-SY5Y cells; assay: Aβ-induced toxicity in SH-SY5Y cells, lactate dehydrogenase (LDH) release assay; format: cell-based, human; settings: 1 μM, pretreated 24 hrs, then 25 μM Aβ 48 hrs
Description: as §1, §2
Cell Viability Assays. […] Cell viability was measured after 48 hours using commercial MTS assay or lactate dehydrogenase (LDH) cytotoxicity assay. […]

[4] = system: 5XFAD primary cortical neurons; assay: Respiration measurements in 5XFAD cortical neurons; format: cell-based, mouse; settings: 10 μM and 50 μM, 48 hours
Description: Respiration Measurements (5XFAD cortical neurons). Primary cortical neurons were plated on poly-D-lysine-coated Seahorse XF24 cell culture microplates at a density of 3×10^4 cells/well and cultured for 14 days. At DIV (day in vitro) 12, neurons were treated with indicated compound for 48 hours. On day of the experiment, cells were washed three times and pre-incubated for 1 h in Assay Media with 10 mM Glucose, 1 mM Pyruvate, and 2 mM L-Glutamine. Measurement of intact cellular respiration was performed using an analyzer and a commercial Mito Stress Test Kit. Respiration was measured under basal conditions, and in response to 1.5 μM oligomycin followed by the addition of the […] (FCCP, 1 μM) which induces maximal OCR (Oxygen Consumption Rate). Finally, respiration was stopped by adding the electron transport chain inhibitors rotenone and antimycin A (0.5 μM). Values were normalized to cellular protein levels.
To obtain proof-of-concept protective effect of 14b in an ex vivo mouse model of AD we isolated primary mouse cortical neurons from the 5XFAD Alzheimer's model mouse (FIGS. 6A-6C). 5XFAD neurons were cultured for 10 days and then treated with 14b at 10 or 50 μM for 48 hours and then stained with the mitochondrial outer membrane protein TOM20 to evaluate mitochondrial morphological changes (FIG. 6A). […]

O=C(C(c1ccccc1)n1cnc2[nH]ncc2c1=S)N1CCC(O)CC1 (stereo not shown) [Compound 14b, 1-(4-hydroxypiperidin-1-yl)-2-phenyl-2-(4-thioxo-1,4-dihydro-5H-pyrazolo[3,4-d]pyrimidin-5-yl)ethan-1-one]
rescue of Aβ-induced reduction of cell viability (MTS assay) [1]: significantly rescued
protection of cell viability (MTS assay) ([1]; pretreated 24 hrs, then 25 μM Aβ 48 hrs): 82%
basal respiration: restored share of the cell respiration reduced by Aβ ([2]; 1 μM pretreatment 24 hrs, then 25 μM Aβ 48 hrs): 46%
proton leak, ATP production and maximal respiration: restoration of mitochondrial function lost by Aβ ([2]; 1 μM pretreatment, then 25 μM Aβ): trend to restore; also recorded: trend to rescue
basal respiration, rescue of Aβ-mediated dysfunction ([2]; SH-SY5Y cells): significantly rescuing
LDH release compared with Aβ treatment alone [3]: significantly reducing LDH release; also recorded: significantly rescued
mitochondrial respiration (oxygen consumption rate) rescue [4]: trend to rescue
